The source of these data is ChEMBL document CHEMBL1201862, “PubChem BioAssay data set” (2004).

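Values below derive from 48-hour exposures of cells grown in 96-well plates, with endpoints linearly interpolated between the two concentrations bracketing the appropriate inhibition level. GI50: concentration for 50% inhibition of growth.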 Activity calls are given as the source filed them. Rule as the data show it: active = GI50 up to about 1.1 µM and inactive = higher. Bounds are passed on as bounds.

Among the test systems are A498; ACHN; BT-549; CCRF-CEM; HCT-15; HT-29; MCF7; Malme-3M; NCI-H226; OVCAR-8; SF-268; SF-539; SK-MEL-2; SK-OV-3; T47D; UO-31; HCC 2998; K562; MOLT-4.
Assay in all cases: NCI anticancer screen, dose series, 48 h

For `O=C1C(O)=C(C(CCc2ccccc2)C2=C(O)C(=O)c3ccccc3C2=O)C(=O)c2ccccc21`, the GI50 in the assay with A498 is 76.4 µM (inactive); with ACHN, 65.9 µM (inactive); in the assay on BT-549, > 100 µM (inactive); with CCRF-CEM, 37.9 µM (inactive); with HCT-15 it was 40.9 µM; in the assay with HT-29, 18.8 µM (inactive). The GI50 in the assay with MCF7 was 40.2 µM (inactive); in the assay with Malme-3M, 4.27 µM (inactive); with NCI-H226 it was > 100 µM (inactive); with OVCAR-8 it was 57.1 µM (inactive); in the assay on SF-268, 92.9 µM (inactive); with SF-539 it was 58.5 µM (inactive). The GI50 in the assay on SK-MEL-2 was 35.5 µM (inactive); in the assay with SK-OV-3, > 100 µM (inactive); in the assay with T47D, > 100 µM (inactive); in the assay on UO-31 it was > 100 µM (inactive).

In the case of `COc1ccc2cc(NC(=O)N/N=C\c3ccc([N+](=O)[O-])cc3)ccc2c1`, the GI50 in the assay with A498 is 53 µM (inactive); with ACHN it was 37.6 µM (inactive); with BT-549, 27.2 µM (inactive); in the assay on CCRF-CEM, > 100 µM (inactive); in the assay with HCC 2998 it was 12.9 µM (inactive); with HCT-15 it was 48 µM. Also, the GI50 in the assay on HT-29 is 33.5 µM (inactive); with K562, 80.4 µM (inactive); with MCF7, 29.9 µM (inactive); with MOLT-4, > 100 µM (inactive); with Malme-3M, 23.4 µM (inactive); in the assay on NCI-H226, 18.7 µM (inactive). The GI50 is 21.8 µM (inactive) in the assay with OVCAR-8; 20.1 µM (inactive) with SF-268; 60.3 µM (inactive) with SK-MEL-2; 31 µM (inactive) in the assay on SK-OV-3; 49.1 µM (inactive) in the assay on T47D; 17.1 µM (inactive) in the assay on UO-31.

Turning to `CN1CN(c2ccccc2)C2(CCN(C3Nc4ccccc4O3)CC2)C1=O` (stereo not given), the GI50 with A498 was 15.5 µM (inactive); with ACHN it was 22 µM (inactive); in the assay with BT-549, 15.7 µM (inactive); in the assay with CCRF-CEM, 13.2 µM (inactive); in the assay on HCT-15, 15.2 µM; in the assay on HT-29 it was 17.9 µM (inactive). Also, the GI50 with K562 was 18.5 µM (inactive); in the assay on MCF7 it was 19.5 µM (inactive); in the assay on MOLT-4 it was 9.57 µM (inactive); in the assay on Malme-3M, 17.3 µM (inactive); with NCI-H226 it was 18.6 µM (inactive); in the assay on OVCAR-8, 26.2 µM (inactive). The GI50 is 23.3 µM (inactive) in the assay with SF-268; 15.1 µM (inactive) in the assay with SF-539; 13.6 µM (inactive) with SK-MEL-2; 19.6 µM (inactive) in the assay with SK-OV-3; 22.2 µM (inactive) with T47D; 27.5 µM (inactive) with UO-31.

Take `O=C1OCC2OC(=O)c3cc(O)c(O)c(O)c3-c3c(O)c(O)c(O)c4c3C(=O)OC(C2OC(=O)c2cc(O)c(O)c(O)c2-c2c1cc(O)c(O)c2O)C1OC(=O)C2C4=C(O)C(=O)C23Oc2cc(O)c4c(c2[C@H]13)O[C@H](c1ccc(O)c(O)c1)[C@@H](O)C4` (stereo not given in full): the GI50 in the assay with A498 was > 100 µM (inactive); in the assay on ACHN it was 23 µM (inactive); with BT-549, 19.3 µM (inactive); with CCRF-CEM, 19.4 µM (inactive); in the assay on HCC 2998 it was 25.2 µM (inactive); in the assay on HCT-15, 18.4 µM. In addition, the GI50 was 16.2 µM (inactive) in the assay with HT-29; 26 µM (inactive) in the assay with K562; 23.1 µM (inactive) in the assay on MCF7; 22.6 µM (inactive) in the assay on MOLT-4; 23.1 µM (inactive) in the assay with Malme-3M; 14.2 µM (inactive) in the assay on NCI-H226. The GI50 in the assay with OVCAR-8 is 22.2 µM (inactive); with SF-268, 19 µM (inactive); in the assay on SK-MEL-2, 20.2 µM (inactive); with SK-OV-3, 44.1 µM (inactive); in the assay with T47D it was 20.7 µM (inactive); with UO-31, 17.8 µM (inactive).

`NC(=O)c1cc2cc(Cl)cc(Cl)c2o/c1=N\c1ccc(F)cc1`: the GI50 in the assay on A498 was 19.4 µM (inactive); in the assay with ACHN, 19.5 µM (inactive); with BT-549, 18.6 µM (inactive); in the assay with CCRF-CEM, 56.8 µM (inactive); in the assay with HCC 2998, 21.1 µM (inactive); in the assay on HCT-15, 17.3 µM. Besides, the GI50 is 29.6 µM (inactive) in the assay with HT-29; 7.11 µM (inactive) in the assay on K562; 19.8 µM (inactive) in the assay on MCF7; 12.5 µM (inactive) in the assay on MOLT-4; 21 µM (inactive) in the assay with Malme-3M; 18.6 µM (inactive) in the assay on NCI-H226. In addition, the GI50 was 37.6 µM (inactive) in the assay on OVCAR-8; 32.4 µM (inactive) in the assay on SF-268; 16.3 µM (inactive) in the assay with SK-MEL-2; 22.5 µM (inactive) in the assay on SK-OV-3; 18.3 µM (inactive) in the assay on T47D; 25.8 µM (inactive) in the assay on UO-31.

For the compound `C[C@H](CCCOS(C)(=O)=O)[C@H]1CC[C@H]2[C@@H]3CC[C@@H]4C[C@H](OS(C)(=O)=O)CC[C@]4(C)[C@H]3CC[C@]12C`, the GI50 in the assay with A498 is 22.3 µM (inactive); in the assay on ACHN, 15.6 µM (inactive); in the assay with BT-549, 36.8 µM (inactive); in the assay on CCRF-CEM, > 100 µM (inactive); in the assay on HCT-15, 66.8 µM; with HT-29, 31.8 µM (inactive). In addition, the GI50 in the assay with K562 is > 100 µM (inactive); in the assay with MCF7, 26.4 µM (inactive); in the assay with MOLT-4, > 100 µM (inactive); in the assay on Malme-3M, 15.2 µM (inactive); with NCI-H226 it was 17.5 µM (inactive); in the assay on OVCAR-8, 14.5 µM (inactive). The GI50 is 27 µM (inactive) with SF-268; 21 µM (inactive) in the assay on SF-539; 60.1 µM (inactive) in the assay on SK-MEL-2; 20.3 µM (inactive) in the assay on SK-OV-3; 24.8 µM (inactive) with T47D; 34 µM (inactive) in the assay on UO-31.

For the compound `COc1ccc(OC)c2sc(N3C(=O)/C(=C/c4cccc(Oc5ccccc5)c4)N=C3c3ccccc3)nc12`, the GI50 in the assay with A498 was > 100 µM (inactive); in the assay with ACHN, > 100 µM (inactive); with BT-549, > 100 µM (inactive); in the assay with CCRF-CEM, 29.9 µM (inactive); in the assay on HCC 2998, > 100 µM (inactive); with HCT-15, 87.9 µM. The GI50 in the assay on HT-29 was > 100 µM (inactive); in the assay on K562, 32.1 µM (inactive); with MCF7, 35.2 µM (inactive); with MOLT-4 it was 31.9 µM (inactive); in the assay on Malme-3M, > 100 µM (inactive); in the assay on OVCAR-8, 76 µM (inactive). For the same compound, the GI50 in the assay on SF-268 is > 100 µM (inactive); in the assay with SK-MEL-2, > 100 µM (inactive); in the assay on SK-OV-3 it was > 100 µM (inactive); in the assay on T47D it was 47 µM (inactive); with UO-31, > 100 µM (inactive).

`CSc1ncc2c(n1)-c1ccccc1OC2N1CCCCC1` (stereo not given): the GI50 in the assay on A498 was 22.2 µM (inactive); in the assay with ACHN, 37.1 µM (inactive); with BT-549, 24.3 µM (inactive); in the assay on CCRF-CEM, 20.6 µM (inactive); with HCT-15, 28.9 µM; with HT-29, 25.4 µM (inactive). For the same compound, the GI50 was 29.5 µM (inactive) with K562; 23.8 µM (inactive) in the assay on MCF7; 20.2 µM (inactive) with MOLT-4; 32 µM (inactive) in the assay with NCI-H226; 63.8 µM (inactive) in the assay with OVCAR-8; 45 µM (inactive) in the assay on SF-268. The GI50 is 51.9 µM (inactive) in the assay with SF-539; 25.9 µM (inactive) with SK-MEL-2; > 100 µM (inactive) in the assay with SK-OV-3; 27.3 µM (inactive) in the assay on T47D; 32.5 µM (inactive) with UO-31.

`COC(=O)CC(c1cn(S(=O)(=O)c2ccc(C)cc2)c2ccccc12)C1C[C@@H](C(=O)OC)N(C(=O)OC(C)(C)C)C1=O` (stereo not given in full): the GI50 in the assay with A498 is 71.4 µM (inactive); with ACHN it was 12.5 µM (inactive); with BT-549, > 100 µM (inactive); in the assay with CCRF-CEM, 9.18 µM (inactive); in the assay with HCT-15, 26.5 µM; with HT-29, 26.7 µM (inactive). For the same compound, the GI50 was 54.1 µM (inactive) in the assay on K562; 33.5 µM (inactive) in the assay on MCF7; 3.91 µM (inactive) in the assay on MOLT-4; 83.4 µM (inactive) in the assay on Malme-3M; > 100 µM (inactive) in the assay with NCI-H226; 43.4 µM (inactive) in the assay on OVCAR-8. Moreover, the GI50 in the assay on SF-268 was 53.6 µM (inactive); with SF-539 it was 7.66 µM (inactive); in the assay on SK-MEL-2, 44.3 µM (inactive); in the assay with T47D, 95.3 µM (inactive); in the assay on UO-31, 45.6 µM (inactive).

`CC1(C)N=C(N)N=C(N)N1c1cccc(Cl)c1`: the GI50 in the assay on A498 is > 100 µM (inactive); with ACHN, 5.21 µM (inactive); with BT-549 it was 6.71 µM (inactive); in the assay on CCRF-CEM it was 3.76 µM (inactive); in the assay with HCC 2998, 14 µM (inactive); with HCT-15, 10.5 µM. Also, the GI50 in the assay on HT-29 was 0.785 µM (active); with K562, 3.66 µM (inactive); in the assay on MCF7, 4.6 µM (inactive); in the assay on Malme-3M it was 9.82 µM (inactive); in the assay on SF-268 it was 1.14 µM (inactive); in the assay with SF-539, 4.66 µM (inactive). The GI50 is > 100 µM (inactive) in the assay with SK-MEL-2, > 100 µM (inactive) with SK-OV-3, > 100 µM (inactive) in the assay with T47D and 15.5 µM (inactive) in the assay on UO-31.

`CCS(=O)(=O)CCn1c(=O)c2c(ncn2C)n(C)c1=O`: the GI50 is > 100 µM (inactive) with A498; > 100 µM (inactive) in the assay with ACHN; > 100 µM (inactive) with BT-549; > 100 µM (inactive) in the assay on CCRF-CEM; > 100 µM (inactive) with HCC 2998; above 100 µM with HCT-15. The GI50 with HT-29, with K562, with MCF7, in the assay with MOLT-4, in the assay with Malme-3M and with OVCAR-8 was > 100 µM (inactive) each time. Besides, the GI50 in the assay on SF-268, with SF-539, in the assay with SK-MEL-2, in the assay on T47D and in the assay with UO-31 was > 100 µM (inactive) throughout.
